Measured values reported in patent US7119256B2, “Gene encoding acetolactate synthase” (priority 2000, dated 2006).

Key:
[1] = biological target: T1, S627I mutant ALS (Oryza sativa subsp. japonica, UniProt Q6K2E8, S627I); test: Herbicide sensitivity of crude ALS with S627I mutation only, 1 mM valine; assay type: biochemical, rice; conditions: crude enzyme
T1 construct: one type of cDNA containing a full length ALS gene could be obtained from a cDNA library derived from the wild type; made in house; host or cells: E. coli JM 109, pGEX-2T backbone; crude enzyme solution
T1 sequence (Q6K2E8 44-644 S627I): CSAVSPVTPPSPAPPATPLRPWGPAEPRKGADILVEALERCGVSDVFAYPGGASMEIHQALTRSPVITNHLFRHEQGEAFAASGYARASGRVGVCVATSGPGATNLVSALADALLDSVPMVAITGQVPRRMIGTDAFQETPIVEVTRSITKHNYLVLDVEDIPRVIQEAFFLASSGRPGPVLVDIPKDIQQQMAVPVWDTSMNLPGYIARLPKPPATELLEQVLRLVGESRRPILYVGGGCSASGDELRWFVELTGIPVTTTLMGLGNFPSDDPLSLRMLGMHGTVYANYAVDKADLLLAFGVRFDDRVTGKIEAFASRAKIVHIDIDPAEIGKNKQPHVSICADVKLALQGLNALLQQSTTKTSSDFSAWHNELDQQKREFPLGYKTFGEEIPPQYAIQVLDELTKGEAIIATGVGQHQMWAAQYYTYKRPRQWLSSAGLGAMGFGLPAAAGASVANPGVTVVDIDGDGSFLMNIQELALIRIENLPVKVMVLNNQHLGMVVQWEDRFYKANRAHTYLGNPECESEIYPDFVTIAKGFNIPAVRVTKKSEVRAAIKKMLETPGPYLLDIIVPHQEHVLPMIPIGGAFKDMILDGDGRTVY
Protocol: (§1) A plasmid having W548L mutant ALS gene or a plasmid having S627I mutant ALS gene was transformed into E. coli strain JM 109. The colonies obtained from transformation were subjected to liquid culture, expression of GST induction protein was induced in the same manner as in Examples 4 and 5, a crude enzyme solution was prepared, and then herbicide sensitivity of ALS was examined in the presence of 1 mM valine.

[2] = test system: resistant mutant culture cells; test: Growth of bispyribac-sodium resistant rice culture cells (resistant mutant) with herbicide (relative wet weight); assay type: cell-based, Oryza sativa var. Kinmaze
Protocol: Subsequently, the resulting plurality of cell lines were cultured while elevating the concentration of bispyribac-sodium in an orderly manner. […] The bispyribac-sodium resistant culture cells (hereinafter referred to as resistant mutant) were sub-cultured on MS-2,4-D solid media supplemented with 100 μM bispyribac-sodium. Part of the sub-cultured resistant mutant was sampled, added into MS-2,4-D liquid media not supplemented with bispyribac-sodium, and then subjected to suspended cell culture at a cycle of 8 to 10 days.
(§2) Approximately 1.5 g (wet weight) of the resistant mutant was transplanted in 200 ml of a Erlenmeyer flask supplemented with 50 ml of a MS-2,4-D liquid medium and bispyribac-sodium at an appropriate concentration, followed by culturing at approximately 27° C. for an appropriate period. The wet weight of the callus was measured periodically. The relative amount of increase was determined based on the wet weight of the transplanted resistant mutant. In addition, the experiment was performed three times with different bispyribac-sodium concentrations, and the standard error was calculated. […] As a control, a similar experiment was conducted using the wild type (Kinmaze).
(§3) The growth rates of the wild type and the resistant mutant were measured as described above except for the use of chlorsulfuron instead of bispyribac-sodium.

[3] = biological target: mutant ALS protein (Oryza sativa subsp. japonica, UniProt Q6K2E8, S627I/W548L); test: Herbicide sensitivity of ALS partially purified from the resistant mutant (acetoin colorimetric ALS activity); assay type: biochemical, rice (Kinmaze); design: from tissue; host or cells: resistant mutant rice (Kinmaze) cultured cells, liquid culture; ammonium sulfate, Sephadex G-25, HiTrap Q
mutant ALS protein (Oryza sativa subsp. japonica, UniProt Q6K2E8, S627I/W548L), sequence (Q6K2E8 44-644 W548L/S627I): as the sequence (Q6K2E8 44-644 S627I) above, with W505L counted along it
Protocol: (§4) First, 200 g or more of resistant mutant was prepared by a liquid culture method (no supplementation with bispyribac-sodium), the culture having a composition as shown in Table 1 but without Gelrite. Then, about 150 g of the resistant mutant was homogenized using Hiscotron in a volume of buffer-1 [100 mM potassium phosphate buffer (pH 7.5) containing 20% (v/v) glycerol, 0.5 mM thiamin pyrophosphate (TPP), 10 μM flavin adenine dinucleotide (FAD), 0.5 mM MgCl2, and a volume of polyvinyl polypyrrolidone one-tenth that of tissue volume] 3-fold greater than tissue volume. The homogenate was filtered through nylon gauze, and then centrifuged at 15,000×g for 20 min. Ammonium sulfate was added to the centrifuged supernatant to 50% saturation, and then allowed to stand in ice for approximately 1 hour. The mixture was again centrifuged at 15,000×g for 20 min, and then the precipitated fraction was dissolved in about 30 ml of buffer-2 [10 mM Tris hydrochloric acid buffer (pH 7.5) containing 20% (v/v) glycerol, 0.5 mM TPP and 0.5 mM MgCl2]. […]
(§5) Next, the protein concentration of the crude enzyme solution was measured by the Bradford method according to the manual of Bio-Rad Protein Assay. […]
(§6) ALS activity resulting from the mutant ALS protein contained in the eluted fractions apportioned into each test tube for apportion was measured as follows. A reaction solution to be used in a measurement reaction was prepared by mixing an eluted fraction to be measured with a solution comprising 20 mM sodium pyruvate, 0.5 mM TPP, 0.5 mM MgCl2, 10 μM FAD and 20 mM potassium phosphate buffer (pH 7.5). […] After the eluted fraction to be measured was added, the measurement reaction was performed at 30° C. for 40 to 60 min. […]
(§7) Then, to quantify acetoin contained in the reaction solution, 1 ml of 0.5% (w/v) creatine and 1 ml of 5% (w/v) α-naphthol dissolved in 2.5 N sodium hydroxide was added to the reaction solution, followed by incubation at 37° C. for 10 min. Acetoin was then quantified by color comparison of the absorbance (at 525 nm) of the reaction solution, thereby evaluating ALS activity. […]

[4] = test system: wild type (Kinmaze) culture cells; test: Growth of wild type rice (Kinmaze) culture cells in liquid medium with herbicide (relative wet weight); assay type: cell-based, Oryza sativa var. Kinmaze
Protocol: as §2, §3

[5] = test system: mutant ALS protein; test: Herbicide sensitivity of ALS partially purified from the resistant mutant (acetoin colorimetric ALS activity); assay type: biochemical, rice (Kinmaze)
Protocol: as §4, §5, §6, §7

[6] = biological target: T2, W548L mutant ALS (Oryza sativa subsp. japonica, UniProt Q6K2E8, W548L); test: Herbicide sensitivity of crude ALS with W548L mutation only, 1 mM valine; assay type: biochemical, rice; conditions: crude enzyme
T2 construct: one type of cDNA containing a full length ALS gene could be obtained from a cDNA library derived from the wild type; made in house; host or cells: E. coli JM 109, pGEX-2T backbone (pGEX-2T-wALS); crude enzyme solution
T2 sequence (Q6K2E8 44-644 W548L): as the sequence (Q6K2E8 44-644 S627I) above, with W505L, I584S counted along it
Protocol: as §1

SMILES | resistance imparted by S627I mutation alone [1] | growth of the resistant mutant (relative weight on day 9) ([2]; 1 μM chlorsulfuron) | IC50 [3] | growth of the wild type (relative weight on day 9) ([4]; 1 nM chlorsulfuron) | RS ratio Resistant mutant: I50 (resistant mutant)/I50 (wild type) [5] | resistance imparted by W548L mutation alone [6] | growth of the resistant mutant (relative weight on day 8) ([2]; 10 μM bispyribac-sodium) | proliferation of resistant cell lines in the presence of herbicide ([2]; 100 μM bispyribac-sodium) | growth of the wild type (relative weight on day 8) ([4]; 1 nM bispyribac-sodium) | growth of the wild type (relative weight on day 8) ([4]; 10 nM or more bispyribac-sodium)
COc1nc(C)nc(NC(=O)NS(=O)(=O)c2ccccc2Cl)n1 [Chlorsulfuron, chlorsulfuron] | imparted no obvious resistance | strongly inhibited | 0.0928 µM | inhibited | 5.36 | imparted resistance | – | – | – | –
COc1cc(OC)nc(Oc2cccc(Oc3nc(OC)cc(OC)n3)c2C(=O)[O-])n1.[Na+] [Bispyribac-sodium, bispyribac-sodium] | imparted resistance | – | 0.421 µM | – | 74.8 | imparted resistance | almost none of the growth of the resistant mutant was affected | can proliferate | not inhibited | inhibited
